Assay results taken from publication PMC9585585, “Discovery of Small-Molecule Allosteric Inhibitors of PfATC as Antimalarials” (Journal of the American Chemical Society, 2022).
Where two headings read alike, the source gives them in different places.

How the values were obtained:
PfATC = PfATC (Plasmodium falciparum, UniProt A0A5K1K910); assay: biochemical
Procedure: Following washing with Lysis buffer
Excess imidazole was removed and the His-tag was cleaved
400Then, the sample was loaded onto a 5 ml HiTrap SP HP column (GE Healthcare, USA) and
410PfATC activity assay. Enzymatic reactions were performed in a total volume of 150 µL in 50 mM
Small-molecule dose-response curves were
The reactions were initiated by adding CP and quenched after 10 min with
After plates were sealed with transparent sealing
(§1) 420tape to prevent evaporation and incubated overnight in the dark place at room temperature. After
Analyses were performed using
The enzymatic assay was performed as described herein above for
Briefly, the reaction was carried out at room
The reaction was initiated by
Then the plate was covered by sealing
(§2) 430tape and kept in dark place at room temperature and then heated to 95 °C for 15min in dark and kept

HsATC = biological target: T1, HsATC (Homo sapiens, UniProt P27708); assay: HsATC activity assay; type: biochemical; conditions: in vitro activity assay, 10 mM L-aspartate, 5 mM carbamoyl phosphate; read-out: HsATC IC50
T1 construct: ATCase domain of CAD; made in house; host or cells: E. coli BL21 star
T1 sequence (P27708 1918-2225 limits assumed): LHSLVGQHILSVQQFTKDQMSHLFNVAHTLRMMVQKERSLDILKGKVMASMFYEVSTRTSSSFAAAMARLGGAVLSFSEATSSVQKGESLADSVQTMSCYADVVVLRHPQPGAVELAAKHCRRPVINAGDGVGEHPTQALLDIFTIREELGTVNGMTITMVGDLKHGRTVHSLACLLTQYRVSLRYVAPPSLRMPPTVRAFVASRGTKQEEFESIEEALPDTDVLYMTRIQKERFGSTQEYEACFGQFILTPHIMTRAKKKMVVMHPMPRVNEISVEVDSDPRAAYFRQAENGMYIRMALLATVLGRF
Procedure: 417100μL of stop mix (two volumes of Antipyrine (26.5 mM 2,3-Dimethyl-1-phenyl-3-pyrazolin-5-
418one in 50% (v/v) sulfuric acid) and one volume of 2,3-Butanedione monoxime (80 mM 2,3-
419Butanedione monoxime in 5% (v/v) acetic acid). After plates were sealed with transparent sealing
as §1
421incubation, the plates were heated at 95 °C for 15 min in dark place, and kept for 30 min before
422measuring at 466 nm suing a Synergy H1 Hybrid Reader (BioTek). Analyses were performed using
423Microsoft Excel and Graph Pad Prism.
424HsATC activity assay. The enzymatic assay was performed as described herein above for
425enzymatic assay of PfATC with minor modifications. Briefly, the reaction was carried out at room
426temperature in a total volume of 150 μl of 10 mM L-aspartate and 5 mM carbamoyl phosphate
427saturated substrate solution in 50 mM Tris-Acetate buffer pH 8.3. hsATC was pre-incubated with
428inhibitor and L-Asp for 10 min at room temperature on a shaker. The reaction was initiated by
429adding CP and stopped after 5 min with […] color mix. Then the plate was covered by sealing
as §2
431the plate in the dark for another 30 min before measuring the absorbance at 466 nm suing a Synergy
432H1 Hybrid Reader (BioTek). […]

[1] = in vitro activity assay, PfATC 50 nM, 2 mM CP, 1 mM aspartate, read-out: PfATC IC50
[2] = in vitro enzyme assay, PfATC 50 nM, n = 3, read-out: IC50 against PfATC

Sequence of PfATC (A0A5K1K910 entry or part of it): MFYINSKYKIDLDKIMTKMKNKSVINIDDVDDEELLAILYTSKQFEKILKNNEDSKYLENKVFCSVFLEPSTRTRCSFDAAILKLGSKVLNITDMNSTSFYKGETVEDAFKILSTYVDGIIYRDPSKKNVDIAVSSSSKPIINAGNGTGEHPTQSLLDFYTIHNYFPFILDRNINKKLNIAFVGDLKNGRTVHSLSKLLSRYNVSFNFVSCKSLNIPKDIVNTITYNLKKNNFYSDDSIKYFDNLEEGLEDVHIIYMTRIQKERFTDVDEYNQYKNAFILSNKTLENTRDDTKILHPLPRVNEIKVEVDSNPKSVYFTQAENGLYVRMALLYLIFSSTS

Compound | IC50 (PfATC; [1]) [µM] | IC50 (HsATC) [µM] | IC50 (PfATC; [2]) [µM] | IC50 (PfATC) [µM]
COC(=O)c1cc(-c2ccccc2)sc1N [BDA-01] | 1.27 | 1.54 |  | 
C#CCNC(=O)c1cc(-c2ccccc2)sc1N [compound 2] |  |  | 4.91 | 
O=C(Cc1c[nH]c2ccccc12)Nc1sc(-c2ccccc2)cc1C(=O)NCCc1ccccc1 [BDA-08] | 14.7 |  |  | 
CC(C)(C)OC(=O)Nc1sc(Br)cc1C(=O)NCCc1ccc(O)cc1 [BDA-32] | 2.76 | 0.641 |  | 
O=C(NCCc1ccccc1)c1cc(-c2ccccc2)sc1NCc1ncc[nH]1 [BDA-13] | 0.639 | 0.268 |  | 
CC(C)(C)OC(=O)Nc1sc(-c2ccccc2)cc1C(=O)O [BDA-03] | 1 | 1.63 |  | 
CC(C)(C)OC(=O)Nc1sc(-c2cccc(N3CCOCC3)c2)cc1C(=O)NCCc1ccc(O)cc1 [BDA-47] | 1.53 | 0.238 |  | 
CC(C)(C)OC(=O)Nc1sc(-c2ccccc2)cc1C(=O)NCC(c1ccccc1)c1ccccc1 [BDA-39] | 5.65 | 15.4 |  | 
COCCNC(=O)c1cc(-c2ccccc2)sc1N [compound 1] |  |  |  | 1.59
Cc1ccc(CCNC(=O)c2cc(-c3ccccc3)sc2NC(=O)OC(C)(C)C)cc1 [BDA-23] | 0.409 | 0.756 |  | 
CC(C)(C)OC(=O)Nc1sc(-c2ccccc2)cc1C(=O)N1CCN(c2ccc(F)cc2)CC1 [BDA-10] | 5.08 | 0.298 |  | 
CC(C)(C)OC(=O)Nc1sc(-c2cccc(C#N)c2)cc1C(=O)NCCc1ccc(O)cc1 [BDA-53] | 2.72 | 0.383 |  | 
C=CCNC(=O)c1cc(-c2ccccc2)sc1N [compound 3] |  |  | 4.61 | 
COC(=O)c1c(NC(=O)OC(C)(C)C)sc2c1CCC(c1ccccc1)C2 (centres unmarked) [BDA-65] | 6.42 | 5.17 |  | 
Nc1sc(-c2ccccc2)cc1C(=O)NCCc1ccccc1 [BDA-05] | 1.27 | 0.765 |  | 
COC(=O)c1c(N)sc2c1CCC(c1ccccc1)C2 (centres unmarked) [BDA-66] | 1.29 | 0.764 |  | 
Cc1c(-c2ccccc2)sc(NC(=O)OC(C)(C)C)c1C(=O)NCCc1ccc(O)cc1 [BDA-49] | 5.94 | 0.729 |  | 
CC(C)(C)OC(=O)Nc1sc(-c2ccccc2)cc1C(=O)NCCN1CCOCC1 [BDA-57] | 0.8 | 0.381 |  | 
CC(C)(C)OC(=O)Nc1sc(-c2ccc(F)cc2)cc1C(=O)NCCc1ccc(O)cc1 [BDA-54] | 0.845 | 0.158 |  | 
Nc1sc(Cc2ccccc2)cc1C(=O)NCCc1ccc(O)cc1 [BDA-58] | 4.83 | 1.23 |  | 
N#CC1(C(=O)Nc2sc(-c3ccccc3)cc2C(=O)NCCc2ccc(O)cc2)CC1 [BDA-70] | 0.876 | 0.556 |  | 
Cc1ccc(-c2cc(C(=O)NCCc3ccc(O)cc3)c(NC(=O)OC(C)(C)C)s2)cc1 [BDA-52] | 0.558 | 0.119 |  | 
CC(C)(C)OC(=O)NCC1CCN(C(=O)c2cc(-c3ccccc3)sc2NC(=O)OC(C)(C)C)CC1 [BDA-09] | 0.241 | 0.196 |  | 
CC(C)(C)OC(=O)Nc1sc(-c2ccccc2)cc1C(=O)NCCc1ccc(O)c(O)c1 [BDA-25] | 0.181 | 0.403 |  | 
CC(C)(C)OC(=O)Nc1oc(-c2ccc(Cl)cc2)cc1C(=O)NCCc1ccc(O)cc1 [BDA-44] | 6.11 | 0.83 |  | 
CC(C)(C)OC(=O)Nc1sc(-c2ccccc2)cc1C(=O)NCc1ccccc1 [BDA-34] | 0.849 | 0.212 |  | 
Nc1sc(-c2ccccc2)cc1C(=O)NCCc1ccc(O)cc1 [BDA-50] | 1.14 | 0.36 |  | 
CC(C)(C)OC(=O)Nc1sc2c(c1C(=O)NCCc1ccc(O)cc1)CCCC2 [BDA-43] | 18.4 | 2.09 |  | 

Compound | IC50 (PfATC; [1]) [µM] | IC50 (HsATC) [µM] | IC50 (PfATC; [2]) [µM] | IC50 (PfATC) [µM]
CCCNC(=O)c1cc(-c2ccccc2)sc1N [compound 5] |  |  | 5.69 | 
COC(=O)c1cc(-c2ccc3c(c2)OCCO3)sc1NC(=O)OC(C)(C)C [BDA-69] | 1.05 | 1.03 |  | 
CC(C)(C)OC(=O)Nc1sc(-c2ccccc2)cc1C(=O)NCC(=O)c1ccccc1 [BDA-27] | 1.23 | 0.369 |  | 
CC(C)(C)OC(=O)Nc1sc(-c2ccccc2)cc1C(=O)N1CCN(c2ccc(O)cc2)CC1 [BDA-63] | 1.09 | 0.251 |  | 
CC(C)(C)OC(=O)Nc1sc(-c2ccccc2)cc1C(=O)NC1CCN(Cc2ccccc2)CC1 [BDA-38] | 0.805 | 0.185 |  | 
CC(C)(C)OC(=O)Nc1sc(Cc2ccccc2)cc1C(=O)NCCc1ccc(O)cc1 [BDA-59] | 3.11 | 2.59 |  | 
CC(C)(C)OC(=O)Nc1sc(-c2ccccc2)c(-c2ccccc2)c1C(=O)NCCc1ccc(O)cc1 [BDA-60] | 2.01 | 1.05 |  | 
CC(C)(C)OC(=O)Nc1sc(-c2ccc(Cl)c(Cl)c2)cc1C(=O)NCCc1ccc(O)cc1 [BDA-56] | 2.22 | 0.556 |  | 
CC(C)(C)OC(=O)Nc1sc(-c2ccccc2)cc1C(=O)NCc1ccc(O)cc1 [BDA-30] | 2.62 | 0.397 |  | 
COC(=O)c1c(NC(=O)OC(C)(C)C)sc2c1CCCC2 [BDA-67] | 1.36 | 1.01 |  | 
CC(C)(C)OC(=O)Nc1sc2c(c1C(=O)NCCc1ccc(O)cc1)CCN(Cc1ccccc1)C2 [BDA-36] |  | 3.84 |  | 
CC(C)(C)OC(=O)Nc1sc(-c2cccc(C=O)c2)cc1C(=O)NCCc1ccc(O)cc1 [BDA-48] | 1.67 | 0.125 |  | 
CC(C)c1cc(C(=O)NCCc2ccc(O)cc2)c(NC(=O)OC(C)(C)C)s1 [BDA-62] | 2.2 | 1.12 |  | 
COC(=O)c1c(N)sc2c1CCN(Cc1ccccc1)C2 [BDA-68] |  | 58.3 |  | 
CC(C)(C)OC(=O)Nc1sc(-c2ccc3c(c2)OCO3)cc1C(=O)NCCc1ccc(O)cc1 [BDA-41] | 0.673 | 0.0289 |  | 
CC(C)(C)OC(=O)Nc1sc(-c2ccccc2)cc1C(=O)NCCC1=CCCCC1 [BDA-20] | 6.31 | 2 |  | 
CC(C)(C)OC(=O)Nc1sc(-c2cnc(N)nc2)cc1C(=O)NCCc1ccc(O)cc1 [BDA-35] | 2.08 | 0.234 |  | 
CC(C)(C)OC(=O)Nc1sc(-c2ccccc2)cc1C(=O)Nc1ccccc1 [BDA-31] | 1.05 | 0.332 |  | 
Nc1sc(-c2ccccc2)cc1C(=O)NCCc1ccc(S(N)(=O)=O)cc1 [BDA-07] | 0.997 | 0.116 |  | 
CCCCNC(=O)c1cc(-c2ccccc2)sc1N [compound 4] |  |  | 3.32 | 
COc1ccc(CCNC(=O)c2cc(-c3ccccc3)sc2NC(=O)OC(C)(C)C)cc1 [BDA-29] | 1.62 | 0.585 |  | 
CC(C)(C)OC(=O)Nc1sc(-c2ccc3c(c2)OCCO3)cc1C(=O)NCCc1ccc(O)cc1 [BDA-33] | 0.516 | 0.101 |  | 
CC(C)(C)OC(=O)NCC(=O)Nc1sc(-c2ccccc2)cc1C(=O)NCCc1ccc(O)cc1 [BDA-17] | 1.15 | 0.308 |  | 
CC(C)(C)OC(=O)Nc1sc(-c2ccc(C=O)cc2)cc1C(=O)NCCc1ccc(O)cc1 [BDA-45] | 3.77 | 0.124 |  | 
Nc1sc(-c2ccccc2)cc1C(=O)NCCc1ccc(F)cc1 [BDA-46] | 1.64 | 0.741 |  | 
COC(=O)c1c(NC(=O)OC(C)(C)C)sc2c1CCN(Cc1ccccc1)C2 [BDA-64] | 86.9 | 704 |  | 
CC(C)(C)OC(=O)Nc1sc(-c2cncc(Cl)c2)cc1C(=O)NCCc1ccc(O)cc1 [BDA-40] |  | 11.4 |  | 
